Measured values as given in PubChem BioAssay (NCI).
“And” between values parts separate entries of the source, which are not always exact repeats. Equal values may be shown once.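 The concentration for 50% growth inhibition is given as GI50. Definition used: TGI = concentration required for complete inhibition of growth.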

Tests used:
Assay in all cases: growth of human tumour cells (NCI), 384-well format
[1] = tested on: ACHN renal
[2] = tested on: BT-549 breast
[3] = tested on: CAKI-1 renal
[4] = tested on: COLO 205 colon
[5] = tested on: DU-145 prostate
[6] = tested on: EKVX NSCLC
[7] = tested on: HCT-116 colon
[8] = tested on: HCT-15 colon
[9] = tested on: HL-60(TB) leukemia
[10] = tested on: HOP-92 NSCLC
[11] = tested on: HS 578T breast
[12] = tested on: K-562 leukemia
[13] = tested on: KM12 colon
[14] = tested on: LOX IMVI melanoma
[15] = tested on: M14 melanoma
[16] = tested on: MALME-3M melanoma
[17] = tested on: MCF7 breast
[18] = tested on: MDA-MB-231 breast
[19] = tested on: MDA-MB-468 breast
[20] = tested on: MOLT-4 leukemia
[21] = tested on: NCI-H226 lung
[22] = tested on: NCI-H23 lung
[23] = tested on: NCI-H322M lung
[24] = tested on: NCI-H522 lung
[25] = tested on: NCI/ADR-RES ovarian
[26] = tested on: OVCAR-4 ovarian
[27] = tested on: OVCAR-5 ovarian
[28] = tested on: OVCAR-8 ovarian
[29] = tested on: RPMI-8226 leukemia
[30] = tested on: RXF 393 renal
[31] = tested on: SF-295 CNS
[32] = tested on: SK-MEL-28 melanoma
[33] = tested on: SK-MEL-5 melanoma
[34] = tested on: SK-OV-3 ovarian
[35] = tested on: SNB-75 CNS
[36] = tested on: SR leukemia
[37] = tested on: SW-620 colon
[38] = tested on: TK-10 renal
[39] = tested on: 786-0 renal
[40] = tested on: A498 renal
[41] = tested on: A549 NSCLC
[42] = tested on: HOP-62 NSCLC
[43] = tested on: HT29 colon
[44] = tested on: IGROV1 ovarian
[45] = tested on: MDA-MB-435 melanoma
[46] = tested on: NCI-H460 NSCLC
[47] = tested on: OVCAR-3 ovarian
[48] = tested on: PC-3 prostate
[49] = tested on: SF-268 CNS
[50] = tested on: SF-539 CNS
[51] = tested on: SK-MEL-2 melanoma
[52] = tested on: SN12C renal
[53] = tested on: SNB-19 CNS
[54] = tested on: T-47D breast
[55] = tested on: U251 glioblastoma
[56] = tested on: UACC-257 melanoma
[57] = tested on: UACC-62 melanoma
[58] = tested on: UO-31 renal

For CCc1cc2c(cc1N1CCC(N3CCOCC3)CC1)C(C)(C)c1[nH]c3cc(C#N)ccc3c1C2=O, the GI50 [1] was 5.04 µM and 1.42 µM, the TGI [1] was 12.3 µM and 3.12 µM and the GI50 [2] was 4.75 µM and 0.496 µM. For the same molecule, the TGI [2] was 9 µM and 1.62 µM, the GI50 [3] was 5.87 µM and 2.17 µM and the TGI [3] was 14.2 µM and 5.76 µM. The GI50 [4] was 7.03 µM and 1.16 µM, the GI50 [5] was 1.63 µM and 0.992 µM and the TGI [5] was 6.57 µM and 2.37 µM. The GI50 [6] was 4.67 µM and 1.37 µM, the TGI [6] was 11.4 µM and 2.98 µM and the GI50 [7] was 5.79 µM and 1.47 µM. For the same molecule, the TGI [7] was 11.5 µM and 3.08 µM, the TGI [8] was 8.23 µM and 1.45 µM and the GI50 [9] was 6.14 µM and 0.686 µM. The TGI [9] was 10.9 µM and 1.9 µM, the GI50 [10] was 5.13 µM and 0.841 µM and the TGI [10] was 11.3 µM and 2.62 µM. The TGI [11] was 8.55 µM and 1.21 µM, the GI50 [12] was 0.633 µM and the TGI [12] was 5.17 µM. The TGI [13] was 6.7 µM and 1.47 µM, the GI50 [14] was 4.67 µM and 1.17 µM and the TGI [14] was 9.04 µM and 2.67 µM. The GI50 [15] was 5.43 µM and 0.726 µM, the TGI [15] was 13.3 µM and 4.3 µM and the GI50 [16] was 2.11 µM and 0.839 µM. For the same molecule, the TGI [16] was 5.69 µM and 2.24 µM, the TGI [17] was 8.58 µM and 2.05 µM and the GI50 [18] was 1.11 µM and 1.26 µM. The TGI [18] was 2.73 µM and 3.32 µM, the GI50 [19] was 2.56 µM and 0.567 µM and the TGI [19] was 6.54 µM and 1.71 µM. For the same molecule, the GI50 [20] was 1.92 µM and 0.302 µM, the TGI [20] was 7.47 µM and 1.5 µM and the GI50 [21] was 3.1 µM. The TGI [21] was 8.34 µM and 2.64 µM, the GI50 [22] was 4.88 µM and 1.47 µM and the TGI [22] was 13.1 µM and 10.9 µM. For the same molecule, the TGI [23] was 29.4 µM and 3.81 µM, the GI50 [24] was 2.92 µM and 1.15 µM and the TGI [24] was 8.64 µM and 2.58 µM. For the same molecule, the GI50 [25] was 0.666 µM and 1.54 µM, the TGI [25] was 2.96 µM and 4.51 µM and the GI50 [26] was 1.19 µM and 0.437 µM. The TGI [26] was 2.46 µM and 1.5 µM, the GI50 [27] was 5.33 µM and 1.21 µM and the GI50 [28] was 4.12 µM and 1.11 µM. For the same molecule, the TGI [28] was 8.68 µM and 2.36 µM, the GI50 [29] was 1.74 µM and 0.399 µM and the TGI [29] was 4.44 µM and 1.85 µM. The GI50 [30] was 2.45 µM and 0.547 µM, the TGI [30] was 7.13 µM and 1.88 µM and the TGI [31] was 11.3 µM and 2.17 µM. The GI50 [32] was 17.5 µM and 1.8 µM, the TGI [32] was 31.3 µM and 3.56 µM and the TGI [33] was 8.31 µM and 1.6 µM. For the same molecule, the GI50 [34] was 11 µM and 1.15 µM, the TGI [35] was 10.6 µM and 1.07 µM and the TGI [36] was 0.686 µM. The GI50 [37] was 5.07 µM and 0.686 µM, the GI50 [38] was 11.4 µM and 1.45 µM and the TGI [38] was 26.6 µM and 3.09 µM.
Cc1cc(Oc2ccc3nc(COc4ccc(CC5SC(=O)NC5=O)cc4)n(C)c3c2)cc(C)c1N (stereo not drawn) gave a GI50 [39] of 30.2 µM, a TGI [39] greater than 100 µM and a GI50 [40] of 25.7 µM. The TGI [40] was 62.9 µM, the GI50 [41] was 24.8 µM and the TGI [41] was 58.2 µM. For the same molecule, the GI50 [1] was 31.3 µM, the TGI [1] was 98.7 µM and the GI50 [2] was 16.4 µM. The TGI [2] was 31.2 µM, the GI50 [3] was 29.5 µM and the TGI [3] was 74.9 µM. For the same molecule, the GI50 [4] was 33.7 µM, the TGI [4] was 82.7 µM and the GI50 [5] was 19 µM. The TGI [5] was 36 µM, the GI50 [6] was 22.6 µM and the TGI [6] was 44.2 µM. The GI50 [7] was 15.4 µM, the TGI [7] was 30.6 µM and the GI50 [8] was 21.7 µM. For the same molecule, the TGI [8] was 43 µM, the GI50 [9] was 14 µM and the TGI [9] was 27.2 µM. For the same molecule, the GI50 [42] was 14.6 µM, the TGI [42] was 35 µM and the GI50 [10] was 23.9 µM. For the same molecule, the TGI [10] was 60.6 µM, the GI50 [11] was 18.6 µM and the TGI [11] was 42.6 µM. For the same molecule, the GI50 [43] was 27.2 µM, the TGI [43] was 73.1 µM and the GI50 [44] was 29.6 µM. It also gave a TGI [44] of 79.5 µM, a GI50 [12] of 18.8 µM and a TGI [12] of 49.1 µM. It also gave a GI50 [13] of 17.2 µM, a TGI [13] of 31.8 µM and a GI50 [15] of 19.9 µM. It also gave a TGI [15] of 39.9 µM, a GI50 [16] of 20.7 µM and a TGI [16] of 39.3 µM. For the same molecule, the GI50 [17] was 5.45 µM, the TGI [17] was 22 µM and the GI50 [18] was 30.4 µM. It also gave a TGI [18] greater than 100 µM, a GI50 [45] of 20 µM and a TGI [45] of 43.9 µM. The GI50 [19] was 16.7 µM, the TGI [19] was 36.2 µM and the GI50 [20] was 14 µM. For the same molecule, the TGI [20] was 27.1 µM, the GI50 [21] was 22.6 µM and the TGI [21] was 46.7 µM. It also gave a GI50 [22] of 15.6 µM, a TGI [22] of 29.5 µM and a GI50 [23] of 32.8 µM. It also gave a TGI [23] of 77.4 µM, a GI50 [46] of 15.9 µM and a TGI [46] of 31.9 µM. It also gave a GI50 [24] of 20.4 µM, a TGI [24] of 41.4 µM and a GI50 [47] of 19.1 µM. The TGI [47] was 35.8 µM, the GI50 [26] was 29.4 µM and the TGI [26] was 75.2 µM. It also gave a GI50 [27] of 38.2 µM, a TGI [27] greater than 100 µM and a GI50 [28] of 22.4 µM. It also gave a TGI [28] of 53.7 µM, a GI50 [48] of 17.3 µM and a TGI [48] of 35.4 µM. It also gave a GI50 [30] of 16.8 µM, a TGI [30] of 48.4 µM and a GI50 [49] of 23.9 µM. The TGI [49] was 57.7 µM, the GI50 [31] was 26.3 µM and the TGI [31] was 66.4 µM. For the same molecule, the GI50 [50] was 17.5 µM, the TGI [50] was 33.9 µM and the GI50 [51] was 20.3 µM. It also gave a TGI [51] of 35.6 µM, a GI50 [32] of 23 µM and a TGI [32] of 50.7 µM. For the same molecule, the GI50 [33] was 18.8 µM, the TGI [33] was 32.9 µM and the GI50 [34] was 25.8 µM. For the same molecule, the TGI [34] was 66.4 µM, the GI50 [52] was 28.7 µM and the TGI [52] was greater than 100 µM. For the same molecule, the GI50 [53] was 42 µM, the TGI [53] was greater than 100 µM and the GI50 [35] was 22 µM. The TGI [35] was 50 µM, the GI50 [36] was 6.93 µM and the TGI [36] was 19.4 µM. For the same molecule, the GI50 [37] was 25.6 µM, the TGI [37] was 68.8 µM and the GI50 [54] was 16.9 µM. The TGI [54] was 31.1 µM, the GI50 [38] was 27.4 µM and the TGI [38] was 80.5 µM. The GI50 [55] was 21 µM, the TGI [55] was 45.1 µM and the GI50 [56] was 24.5 µM. For the same molecule, the TGI [56] was 48.6 µM, the GI50 [57] was 17.7 µM and the TGI [57] was 31.9 µM. It also gave a GI50 [58] of 24.1 µM and a TGI [58] of 56.9 µM.
